# Experimental data reported in ChEMBL document CHEMBL4043273, “Phenotypic Optimization of Urea-Thiophene Carboxamides To Yield Potent, Well Tolerated, and Orally Active Protective Agents against Aminoglycoside-Induced Hearing Loss” (J Med Chem, 2018).
# Test system: not listed separately
# Assay: Aqueous solubility of compound at pH 7.4
# Type: physicochemical
# Conditions: aqueous medium, read-out: solubility
row,SMILES,solubility [µM]
1,"CN1[C@@H]2CC[C@H]1c1c(sc(NC(=O)Nc3ccc(Cl)cc3)c1C(N)=O)C2 (single isomer, unassigned)",76

# Same assay, conditions: buffer
row,SMILES,solubility [µM]
1,CC1(C)Cc2c(sc(NC(=O)Nc3ccc(Cl)cc3)c2C(N)=O)C(C)(C)N1,83
2,CCN1CCc2c(sc(NC(=O)Nc3ccc(Cl)cc3)c2C(N)=O)C1,85

# Species: Danio rerio
# Assay: Protection against neomycin-induced hair cell death in AB zebra fish larvae assessed as increase in hair cell survival preincubated for 1 hr followed by neomycin challenge for 1 hr by DASPEI staining-based epifluorescence dissecting microscopic method
# Type: functional
# Conditions: not given
row,SMILES,EC50 [µM]
1,CC(C)(C)OC(=O)CCCN1CCc2c(sc(NC(=O)Nc3ccc(Cl)cc3)c2C(N)=O)C1,0.56
2,CCN1CCc2c(sc(NC(=O)NCCN3CCOCC3)c2C(N)=O)C1,> 25
3,CCN1CCc2c(sc(NC(=O)Nc3ccc(Cl)cc3)c2C(=O)N2CCOCC2)C1,> 25
4,CCC(C)(C)C1CCc2c(sc(NC(=O)Nc3ccc(Cl)cc3)c2C(N)=O)C1 (centres undefined),> 25
5,CC[N+]1(C)CCc2c(sc(NC(=O)Nc3ccc(Cl)cc3)c2C(N)=O)C1 (centres undefined),1.96
6,CCN1CCc2c(sc(NC(=O)Nc3ccc(Cl)cc3)c2C(=O)NC2COC2)C1,> 25
7,CC(C)(C)OC(=O)CCC[N+]1(C)CCc2c(sc(NC(=O)Nc3ccc(Cl)cc3)c2C(N)=O)C1 (centres undefined),0.25
8,CCN1CCc2c(sc(NC(=O)Nc3ccc(Cl)cc3)c2C(=O)c2nc(C)no2)C1,> 25
9,NC(=O)c1c(NC(=O)Nc2ccc(Cl)cc2)sc2c1CCNC2,3.26
10,CC(C)(C)OC(=O)CCCCCN1CCc2c(sc(NC(=O)Nc3ccc(Cl)cc3)c2C(N)=O)C1,0.62
11,NC(=O)c1c(NC(=O)Nc2ccc(Cl)cc2)sc2c1CC[N+]1(CCOCC1)C2,1.21
12,NC(=O)c1c(NC(=O)Nc2ccc(Cl)cc2)sc2c1CCN(CCCNC(=O)CCc1cccc3ccccc13)C2,0.11
13,NC(=O)c1c(NC(=O)Nc2ccc(Cl)cc2)sc2c1CCN(CCCNC(=O)CCc1cccnc1)C2,0.47
14,CCN1CCc2c(sc(NC(=O)Nc3ccc(Cl)cc3)c2C(=O)NCCN2CCOCC2)C1,9.38
15,CCN1CCc2sc(NC(=O)Nc3ccc(Cl)cc3)c(C(N)=O)c2C1,4.61
16,CCN1CCc2c(sc(N)c2C(N)=O)C1,> 25
17,CCN1CCc2c(sc(NC(=O)Nc3ccc(Cl)cc3)c2C(=O)O)C1,> 25
18,CCN1CCc2c(sc(NC(=O)Nc3cccc(C)c3)c2C(N)=O)C1,13
19,CCN1CCc2c(sc(NC(=O)Nc3cscc3C(=O)OC)c2C(N)=O)C1,> 25
20,CC(C)(C)OC(=O)CCCC[N+]1(C)CCc2c(sc(NC(=O)Nc3ccc(Cl)cc3)c2C(N)=O)C1 (centres undefined),0.14
21,CC(C)(C)OC(=O)CCCCN1CCc2c(sc(NC(=O)Nc3ccc(Cl)cc3)c2C(N)=O)C1,0.71
22,CN1C2CCC1c1sc(NC(=O)Nc3ccc(Cl)cc3)c(C(N)=O)c1C2 (centres undefined),0.62
23,"CN1[C@@H]2CC[C@H]1c1sc(NC(=O)Nc3ccc(Cl)cc3)c(C(N)=O)c1C2 (single isomer, unassigned)",7.21
24,CC(C)(C)OC(=O)CN1CCc2c(sc(NC(=O)Nc3ccc(Cl)cc3)c2C(N)=O)C1,> 25

row,SMILES,EC50 [µM]
1,CCN1CCc2c(sc(NC(=O)NCC3CCCO3)c2C(N)=O)C1 (centres undefined),> 25
2,CCC1CCc2c(sc(NC(=O)Nc3ccc(Cl)cc3)c2C(N)=O)C1 (centres undefined),> 25
3,CCN1CCc2c(sc(NC(=O)[C@@H]3CCCN3)c2C(N)=O)C1,> 25
4,CC(C)CN1CCc2c(sc(NC(=O)Nc3ccc(Cl)cc3)c2C(N)=O)C1,4.51
5,CCCCc1nnc(NC(=O)Nc2ccc(Cl)cc2)s1,> 25
6,CC(C)(C)OC(=O)CCCCC[N+]1(C)CCc2c(sc(NC(=O)Nc3ccc(Cl)cc3)c2C(N)=O)C1 (centres undefined),0.11
7,CCN1CCc2c(sc(NC(=O)Nc3cccc(Cl)c3Cl)c2C(N)=O)C1,17.4
8,C[N+](C)(C)C1CCc2c(sc(NC(=O)Nc3ccc(Cl)cc3)c2C(N)=O)C1 (centres undefined),5.87
9,COCCC[N+]1(C)CCc2c(sc(NC(=O)Nc3ccc(Cl)cc3)c2C(N)=O)C1 (centres undefined),0.48
10,CCN1CCc2c(sc(NC(=O)CN3CCCCC3)c2C(N)=O)C1,> 25
11,CN1C2CCC1c1c(sc(NC(=O)Nc3ccc(Cl)cc3)c1C(N)=O)C2 (racemic),0.36
12,CCN1CCc2c(ccc(NC(=O)Nc3ccc(Cl)cc3)c2C(N)=O)C1,> 25
13,CN1CCc2c(sc(NC(=O)Nc3ccc(Cl)cc3)c2C(N)=O)C1,4.7
14,NC(=O)c1c(NC(=O)Nc2ccc(Cl)cc2)sc2c1CCN(CC1CCCCC1)C2,1.89
15,COCCCN1CCc2c(sc(NC(=O)Nc3ccc(Cl)cc3)c2C(N)=O)C1,2.4
16,NC(=O)c1c(NC(=O)Nc2ccc(Cl)cc2)sc2c1[C@@H]1CC[C@H](C2)N1,0.03
17,CCN1CCc2c(sc(NC(=S)Nc3ccc(Cl)cc3)c2C(N)=O)C1,6.57
18,CCN1Cc2sc(NC(=O)Nc3ccc(Cl)cc3)c(C(N)=O)c2C1,4.34
19,CN1[C@H]2CC[C@@H]1c1c(sc(NC(=O)Nc3ccc(Cl)cc3)c1C(N)=O)C2,> 2.25
20,CCN1CCc2c(sc(NC(=O)C3(C(=O)Nc4ccc(Cl)cc4)CC3)c2C(N)=O)C1,> 25
21,CCN1CCc2c(sc(NC(=O)Nc3ccc(Cl)cc3)c2C(=O)c2nnco2)C1,> 25
22,NC(=O)c1c(NC(=O)Nc2ccc(Cl)cc2)sc2c1C[C@H]1CC[C@@H]2N1,3.92
23,C[N+]1(CC2CCC2)CCc2c(sc(NC(=O)Nc3ccc(Cl)cc3)c2C(N)=O)C1 (centres undefined),0.21
24,NC(=O)c1c(NC(=O)Nc2ccc(Cl)cc2)sc2c1CCN(CC1CC1)C2,1.22

row,SMILES,EC50 [µM]
1,NC(=O)c1c(NC(=O)Nc2ccc(Cl)cc2)sc2c1C1CCC(C2)N1 (racemic),0.11
2,NC(=O)c1c(NC(=O)Nc2ccc(Cl)cc2)sc2c1CC1CCC2N1 (centres undefined),0.21
3,O=C(Cc1ccc(Cl)cc1)Nc1nc(C(=O)N2CCCCC2)cs1,> 25
4,CCN1CCc2c(sc(NC(=O)Nc3ccccc3)c2C(N)=O)C1,> 25
5,NC(=O)c1c(NC(=O)Nc2ccc(Cl)cc2)sc2c1C[C@@H]1CC[C@H]2N1,0.27
6,CC(C)[N+]1(C)CCc2c(sc(NC(=O)Nc3ccc(Cl)cc3)c2C(N)=O)C1 (centres undefined),0.96
7,CCCN1CCc2c(sc(NC(=O)Nc3ccc(Cl)cc3)c2C(N)=O)C1,3.5
8,CCN1CCc2c(sc(NC(=O)c3ccccc3)c2C(N)=O)C1,> 25
9,CC(C)(C)OC(=O)N1CCc2c(sc(NC(=O)Nc3ccc(Cl)cc3)c2C(N)=O)C1,> 25
10,CCN1CCCc2c(sc(NC(=O)Nc3ccc(Cl)cc3)c2C(N)=O)C1,3.98
11,CCN1CCc2c(sc(NC(=O)Nc3ccc(Cl)cc3)c2C#N)C1,> 25
12,CC[N+]1(CC)CCc2c(sc(NC(=O)Nc3ccc(Cl)cc3)c2C(N)=O)C1,0.45
13,C[N+]1(CC2CCCC2)CCc2c(sc(NC(=O)Nc3ccc(Cl)cc3)c2C(N)=O)C1 (centres undefined),0.2
14,CCN1CCc2c(sc(NC(=O)C3(c4ccc(Cl)cc4)CC3)c2C(N)=O)C1,> 25
15,NC(=O)c1c(NC(=O)Nc2ccc(Cl)cc2)sc2c1[C@H]1CC[C@@H](C2)N1,5
16,CC(C)C[N+]1(C)CCc2c(sc(NC(=O)Nc3ccc(Cl)cc3)c2C(N)=O)C1 (centres undefined),0.38
17,CCN1CCc2c(sc(NC(=O)Nc3ccc(Br)cc3)c2C(N)=O)C1,3.13
18,CCC(O)c1cc2c(cc1NC(=O)Nc1ccc(Cl)cc1)OCCO2 (centres undefined),> 25
19,C[N+]1(CC2CC2)CCc2c(sc(NC(=O)Nc3ccc(Cl)cc3)c2C(N)=O)C1 (centres undefined),0.36
20,CC(C)(C)CN1CCc2c(sc(NC(=O)Nc3ccc(Cl)cc3)c2C(N)=O)C1,5.56
21,CCN1CCc2c(sc(NC(=O)Nc3ccc(C(F)(F)F)cc3)c2C(N)=O)C1,2.91
22,CCN1CCc2c(sc(NC(=O)Nc3ccc(I)cc3)c2C(N)=O)C1,1.62
23,CCN1CCc2c(sc(NC(=O)Nc3ccc(Cl)cc3Cl)c2C(N)=O)C1,11.5
24,"CN1[C@H]2CC[C@@H]1c1sc(NC(=O)Nc3ccc(Cl)cc3)c(C(N)=O)c1C2 (single isomer, unassigned)",0.27

row,SMILES,EC50 [µM]
1,CCN1CCc2c(sc(NC(=O)Nc3ccc(Cl)cc3)c2C(=O)OC)C1,> 25
2,C[N+]1(C2CCc3c(sc(NC(=O)Nc4ccc(Cl)cc4)c3C(N)=O)C2)CCC1 (centres undefined),3.92
3,CC(C)(C)C[N+]1(C)CCc2c(sc(NC(=O)Nc3ccc(Cl)cc3)c2C(N)=O)C1 (centres undefined),0.29
4,CCN1CCc2c(sc(NC(=O)Nc3ccc(-c4ccccc4)cc3)c2C(N)=O)C1,3.39
5,CCN1CCc2c(sc(NC(=O)Nc3ccc4ccccc4c3)c2C(N)=O)C1,1.78
6,NC(=O)c1c(NC(=O)Nc2ccc(Cl)cc2)sc2c1CCN(CC1CCCC1)C2,1.83
7,Cc1c(CN2CCOCC2)sc(NC(=O)Nc2ccc(Cl)cc2)c1C(N)=O,6.92
8,CCN1CCc2c(sc(NC(=O)Nc3ccc(Cl)cc3)c2C(=O)NC)C1,> 25
9,CC(C)(C)OC(=O)CCN1CCc2c(sc(NC(=O)Nc3ccc(Cl)cc3)c2C(N)=O)C1,1.1
10,NC(=O)c1c(NC(=O)Nc2ccc(Cl)cc2)sc2c1CCN(C1CCOCC1)C2,2.83
11,CC(C)N1CCc2c(sc(NC(=O)Nc3ccc(Cl)cc3)c2C(N)=O)C1,1.49
12,CCN1CCc2c(sc(NC(=O)Nc3cccc(C#N)c3)c2C(N)=O)C1,10.3
13,NC(=O)c1c(NC(=O)Nc2ccc(Cl)cc2)sc2c1CCCC2,> 25
14,C[N+]1(CC2CCCCC2)CCc2c(sc(NC(=O)Nc3ccc(Cl)cc3)c2C(N)=O)C1 (centres undefined),0.1
15,NC(=O)c1c(NC(=O)Nc2ccc(Cl)cc2)sc2c1CCN(CC1CCC1)C2,1.36
16,CCN1CCc2sc(NC(=O)Nc3ccc(Cl)cc3)c(C(N)=O)c2CC1,5.8
17,CCN1CCc2c(sc(NC=O)c2C(N)=O)C1,> 25
18,NC(=O)c1c(NC(=O)Nc2ccc(Cl)cc2)sc2c1CC[N+]1(CCCC1)C2,0.41
19,CCN1CCc2c(sc(NC(=O)Nc3ccc(Cl)cc3)c2C(=O)NCCO)C1,9.4
20,CC1CCc2nc(NC(=O)Nc3ccc(Cl)cc3)sc2C1 (centres undefined),> 25
21,CCN1CCc2c(sc(NC(=O)NCc3cccc(Cl)c3)c2C(N)=O)C1,> 25

# Target: Voltage-gated inwardly rectifying potassium channel KCNH2 (Homo sapiens, UniProt Q12809)
# Sequence (Q12809 whole entry): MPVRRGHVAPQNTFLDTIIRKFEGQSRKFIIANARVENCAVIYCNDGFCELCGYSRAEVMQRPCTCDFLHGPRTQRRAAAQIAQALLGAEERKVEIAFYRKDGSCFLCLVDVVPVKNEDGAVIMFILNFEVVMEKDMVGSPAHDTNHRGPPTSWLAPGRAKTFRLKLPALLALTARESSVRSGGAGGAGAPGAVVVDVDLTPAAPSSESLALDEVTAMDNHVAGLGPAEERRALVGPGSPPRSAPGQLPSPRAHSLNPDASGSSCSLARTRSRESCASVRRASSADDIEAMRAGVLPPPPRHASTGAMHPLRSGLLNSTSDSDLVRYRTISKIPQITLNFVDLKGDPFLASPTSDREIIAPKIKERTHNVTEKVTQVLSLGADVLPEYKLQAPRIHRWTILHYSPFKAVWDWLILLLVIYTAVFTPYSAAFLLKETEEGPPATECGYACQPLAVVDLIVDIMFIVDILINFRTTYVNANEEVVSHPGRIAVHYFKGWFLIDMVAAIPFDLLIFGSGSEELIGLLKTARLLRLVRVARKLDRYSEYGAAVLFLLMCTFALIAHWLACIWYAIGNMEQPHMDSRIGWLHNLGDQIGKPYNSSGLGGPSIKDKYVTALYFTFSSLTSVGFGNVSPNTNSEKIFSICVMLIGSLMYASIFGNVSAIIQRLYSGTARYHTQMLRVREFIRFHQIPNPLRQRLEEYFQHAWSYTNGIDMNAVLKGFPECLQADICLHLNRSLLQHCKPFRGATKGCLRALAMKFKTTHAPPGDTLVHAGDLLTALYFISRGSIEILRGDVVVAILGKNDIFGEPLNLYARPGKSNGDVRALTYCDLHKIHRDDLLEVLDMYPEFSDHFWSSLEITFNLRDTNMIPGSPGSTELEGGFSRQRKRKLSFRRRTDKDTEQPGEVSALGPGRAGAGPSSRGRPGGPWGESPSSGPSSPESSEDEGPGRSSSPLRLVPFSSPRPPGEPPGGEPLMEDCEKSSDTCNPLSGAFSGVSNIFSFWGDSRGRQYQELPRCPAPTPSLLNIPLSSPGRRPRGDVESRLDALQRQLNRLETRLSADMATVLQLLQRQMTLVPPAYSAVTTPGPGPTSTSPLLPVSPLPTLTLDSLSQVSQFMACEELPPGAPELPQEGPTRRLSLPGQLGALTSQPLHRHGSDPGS
# Conditions: not given
row,SMILES,IC50 [µM]
1,CC[N+]1(C)CCc2c(sc(NC(=O)Nc3ccc(Cl)cc3)c2C(N)=O)C1 (centres undefined),3.38
2,NC(=O)c1c(NC(=O)Nc2ccc(Cl)cc2)sc2c1CC[N+]1(CCOCC1)C2,12.4
3,NC(=O)c1c(NC(=O)Nc2ccc(Cl)cc2)sc2c1CC[N+]1(CCCC1)C2,3.51
